Read-outs that look alike come from different tables or passages of the source.
Legend:
human topoisomerase IIα = target: T1, human topoisomerase IIα (Homo sapiens, UniProt P11388); assay: human topoisomerase II alpha relaxation high-throughput assay (selectivity); format: biochemical; conditions: residual activity at 100 µM compound; mean ± SD, two independent experiments; read-out: Human TopoIIα (% RA at 100 µM)
T1 construct: purchased Inspiralis (Norwich, UK)
Method: For selectivity determination, a human topoisomerase II alpha relaxation high-throughput assay was used. The assay kits and black streptavidin-coated 96-well microtiter plates are available from Inspiralis (Norwich, UK). Two independent measurements were performed with an inhibitory concentration of 100 µM. Raw data were calculated as the mean ± SD percentage of the residual enzyme activity.

[1] = Metabolic activity assessment (cytotoxicity), CellTiter 96 Aqueous One; format: cell-based; conditions: human, 72 h treatment, means of three independent measurements ± SD
Method: HUVEC (ATCC® CRL-1730™) and HepG2 (ATCC® HB-8065™) cell lines were cultured in Dulbecco’s Modified Eagle Medium (DMEM; Sigma-Aldrich, St. Louis, MO, USA) supplemented with 10% heat-deactivated FBS (Gibco, Grand Island, NE, USA), 2 mM L-glutamine, 100 U/mL penicillin, 100 μg/mL streptomycin (all from Sigma-Aldrich, St. Louis, MO, USA) in a humidified chamber at 37 °C and 5% CO2. The experiments were carried out on passages 4–7 for both cell lines. The tested compounds were dissolved in DMSO and further diluted in culture medium to a desired final concentration. The cells were then seeded into 96-well plates at 5 × 10^4 cells/mL (100 μL/well) or 8 × 10^4 cells/mL (100 μL/well) for HUVEC and HepG2, respectively. The cells were then incubated for 24 h to allow attachment onto the wells. The cells were treated with 1 μM and 50 μM of each compound of interest, or the corresponding vehicle as control. […] Their metabolic activity was assessed after 72 h treatment using a CellTiter 96 Aqueous One Solution Cell Proliferation Assay (Promega, Madison, WI, USA), in accordance with the manufacturer’s instructions. The absorbance was measured at 492 nm on an automated microplate reader, Tecan Spark (Tecan Group Ltd., Männedorf, CH, Switzerland). Data are presented as the percentage of metabolic activity of control cells stimulated with vehicle, or as an IC50 value (mean ± SD) from three independent experiments, each conducted in triplicate (for screening) or duplicate (for IC50 determination). IC50 values were calculated using a non-linear regression model and with Graph Pad Prism 9 software.

S. aureus topoIV = target: T2, S. aureus topoIV (Staphylococcus aureus, UniProt P0C1U9); assay: biochemical; conditions: relaxation inhibition; mean of two independent measurements ± SD
T2 construct: purchased Inspiralis (Norwich, UK)
T2 sequence (P0C1U9 whole entry): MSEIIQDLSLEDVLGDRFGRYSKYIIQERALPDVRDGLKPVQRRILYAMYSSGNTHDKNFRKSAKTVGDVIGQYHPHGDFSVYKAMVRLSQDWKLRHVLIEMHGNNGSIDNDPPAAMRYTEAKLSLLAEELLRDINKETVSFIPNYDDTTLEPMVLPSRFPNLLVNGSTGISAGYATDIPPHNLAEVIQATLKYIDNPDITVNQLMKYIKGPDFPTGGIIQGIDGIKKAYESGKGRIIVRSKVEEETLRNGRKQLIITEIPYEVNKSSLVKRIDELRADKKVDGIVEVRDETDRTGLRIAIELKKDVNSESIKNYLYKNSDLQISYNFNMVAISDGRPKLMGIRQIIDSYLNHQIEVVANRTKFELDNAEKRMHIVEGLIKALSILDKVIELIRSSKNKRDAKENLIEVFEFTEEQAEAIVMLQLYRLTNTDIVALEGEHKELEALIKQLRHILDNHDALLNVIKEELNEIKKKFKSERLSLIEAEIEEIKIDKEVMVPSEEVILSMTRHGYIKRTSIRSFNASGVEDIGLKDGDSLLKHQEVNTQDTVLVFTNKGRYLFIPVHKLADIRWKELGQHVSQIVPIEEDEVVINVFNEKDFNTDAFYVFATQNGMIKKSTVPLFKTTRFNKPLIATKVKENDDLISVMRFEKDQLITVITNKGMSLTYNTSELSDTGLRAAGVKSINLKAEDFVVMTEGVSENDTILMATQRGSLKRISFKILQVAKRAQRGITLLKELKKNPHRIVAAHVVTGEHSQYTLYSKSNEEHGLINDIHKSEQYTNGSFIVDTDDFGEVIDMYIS
T2 sequence (P0C1S7 whole entry partner): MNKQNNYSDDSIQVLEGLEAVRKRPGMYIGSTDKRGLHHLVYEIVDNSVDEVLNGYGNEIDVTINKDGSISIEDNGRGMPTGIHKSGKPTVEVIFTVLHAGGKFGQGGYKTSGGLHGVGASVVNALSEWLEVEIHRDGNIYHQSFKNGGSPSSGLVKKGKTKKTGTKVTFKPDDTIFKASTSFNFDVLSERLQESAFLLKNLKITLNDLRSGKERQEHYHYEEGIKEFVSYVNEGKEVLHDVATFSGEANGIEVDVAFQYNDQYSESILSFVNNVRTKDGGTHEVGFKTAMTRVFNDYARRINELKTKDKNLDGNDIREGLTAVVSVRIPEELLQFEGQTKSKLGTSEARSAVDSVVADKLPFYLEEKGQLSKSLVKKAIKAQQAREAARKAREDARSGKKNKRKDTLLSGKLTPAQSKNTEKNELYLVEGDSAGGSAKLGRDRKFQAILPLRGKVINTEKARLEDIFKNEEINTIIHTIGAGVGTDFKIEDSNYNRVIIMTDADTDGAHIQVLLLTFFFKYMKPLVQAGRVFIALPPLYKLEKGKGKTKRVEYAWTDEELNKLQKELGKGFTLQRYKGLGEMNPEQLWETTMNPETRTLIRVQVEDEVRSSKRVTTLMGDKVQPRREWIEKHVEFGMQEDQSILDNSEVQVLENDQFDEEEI
Method: (§1) To determine the IC50 values of the compounds for S. aureus and E. coli, a DNA gyrase supercoiling high-throughput plate assay and a topoIV relaxation high-throughput plate assay were performed. Assay kits and black streptavidin-coated 96-well microtiter plates are available from Inspiralis (Norwich, UK). For pre-screening, an inhibitor concentration of 100 μM was used. […] A nonlinear regression-based fit of the inhibition curves was used, with the log [inhibitor] versus slope of the reaction variables (four parameters) and a symmetric equation. […] To determine IC50 values, two independent repetitions were performed and the average was calculated.

S. aureus DNA gyrase = target: T3, S. aureus DNA gyrase (Staphylococcus aureus, UniProt P20831); assay: biochemical; conditions: supercoiling inhibition; mean of two independent measurements ± SD
T3 construct: purchased Inspiralis (Norwich, UK)
Method: as §1

E. coli DNA gyrase = target: T4, E. coli DNA gyrase (Escherichia coli, UniProt P0AES4); assay: DNA gyrase supercoiling inhibition assay (high-throughput plate assay); format: biochemical
T4 construct: purchased Inspiralis (Norwich, UK)
Method: as §1

E. faecalis RDK 057 = assay: MIC, broth microdilution; format: cell-based
Method: (§2) For the determination of minimum inhibitory concentrations (MIC), the broth microdilution method was used in 96-well plate format, according to the guidelines of the Clinical and Laboratory Standards Institute and the recommendations of the European Committee on Antimicrobial Susceptibility Testing (EUCAST). The dilutions of the bacterial suspension of the specific bacterial strain, corresponding to the 0.5 McFarland turbidity standard, were prepared with […] Mueller–Hinton broth with TES (Thermo Fisher Scientific) to obtain an end inoculum of 10^5 CFU/mL. The compounds were dissolved in DMSO and mixed with the inoculum. […] The MIC was determined as the lowest concentration of antibiotic that prevented visible bacterial growth. Tetracycline was used as a positive control on each test plate.

K. pneumoniae = assay: MIC, broth microdilution; format: cell-based
Method: as §2

P. aeruginosa RDK 184 = assay: MIC, broth microdilution; format: cell-based
Method: as §2

S. aureus (ATCC 29213) = assay: MIC, broth microdilution; format: cell-based
Method: as §2

E. coli N43 (CGSC# 5583) = assay: MIC, broth microdilution; format: cell-based; conditions: Escherichia coli
Method: as §2

E. coli ESBL QA-11.3 = assay: MIC, broth microdilution; format: cell-based
Method: as §2

A. baumannii = assay: MIC, broth microdilution; format: cell-based
Method: as §2

E. coli D22 = assay: MIC, broth microdilution; format: cell-based; conditions: Escherichia coli
Method: as §2

E. coli (ATCC 25922) = assay: MIC, broth microdilution; format: cell-based
Method: as §2

E. coli topoIV = target: T5, E. coli topoIV (Escherichia coli, UniProt P0AFI2); assay: topoIV relaxation inhibition assay (high-throughput plate assay); format: biochemical
T5 construct: purchased Inspiralis (Norwich, UK)
T5 sequence (P20083 whole entry): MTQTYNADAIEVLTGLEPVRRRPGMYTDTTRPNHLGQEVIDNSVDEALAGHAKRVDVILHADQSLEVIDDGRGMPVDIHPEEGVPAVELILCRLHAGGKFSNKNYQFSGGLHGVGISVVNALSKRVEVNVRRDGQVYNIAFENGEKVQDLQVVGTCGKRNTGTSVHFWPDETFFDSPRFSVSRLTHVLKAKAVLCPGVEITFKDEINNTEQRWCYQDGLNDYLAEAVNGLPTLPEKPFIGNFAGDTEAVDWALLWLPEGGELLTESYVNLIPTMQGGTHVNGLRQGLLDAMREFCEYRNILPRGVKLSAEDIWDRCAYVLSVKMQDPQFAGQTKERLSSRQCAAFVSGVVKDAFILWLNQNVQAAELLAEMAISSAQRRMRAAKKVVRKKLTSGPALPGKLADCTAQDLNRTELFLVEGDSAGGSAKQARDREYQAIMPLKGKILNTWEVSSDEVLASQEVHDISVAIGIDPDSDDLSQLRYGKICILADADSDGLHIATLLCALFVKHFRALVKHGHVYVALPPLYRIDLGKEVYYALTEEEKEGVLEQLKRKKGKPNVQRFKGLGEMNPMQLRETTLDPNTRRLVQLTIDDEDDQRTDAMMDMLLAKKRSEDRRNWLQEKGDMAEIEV
T5 sequence (P0AFI2 whole entry): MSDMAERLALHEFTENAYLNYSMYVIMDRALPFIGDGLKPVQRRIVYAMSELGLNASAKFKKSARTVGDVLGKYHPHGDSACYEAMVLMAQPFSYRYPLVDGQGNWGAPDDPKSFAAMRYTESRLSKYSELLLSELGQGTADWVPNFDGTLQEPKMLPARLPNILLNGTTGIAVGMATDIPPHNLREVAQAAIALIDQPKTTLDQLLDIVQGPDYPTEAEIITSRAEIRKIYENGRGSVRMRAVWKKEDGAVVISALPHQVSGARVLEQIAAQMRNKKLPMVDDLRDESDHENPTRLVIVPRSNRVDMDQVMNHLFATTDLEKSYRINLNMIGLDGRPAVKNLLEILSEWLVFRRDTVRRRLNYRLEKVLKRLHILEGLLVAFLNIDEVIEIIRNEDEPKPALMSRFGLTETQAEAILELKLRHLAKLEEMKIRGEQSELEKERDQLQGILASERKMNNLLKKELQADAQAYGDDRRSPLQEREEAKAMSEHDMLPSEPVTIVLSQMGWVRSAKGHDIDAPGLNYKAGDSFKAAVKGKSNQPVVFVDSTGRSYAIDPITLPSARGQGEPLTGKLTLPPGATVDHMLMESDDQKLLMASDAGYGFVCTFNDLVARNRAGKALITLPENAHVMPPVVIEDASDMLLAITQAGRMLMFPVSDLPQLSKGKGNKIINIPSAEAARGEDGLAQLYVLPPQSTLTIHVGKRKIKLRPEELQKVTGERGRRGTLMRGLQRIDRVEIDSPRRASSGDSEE
Method: as §1

[2] = read-out: MIC E. coli N43 (CGSC# 5583)

T1 sequence (P11388 whole entry): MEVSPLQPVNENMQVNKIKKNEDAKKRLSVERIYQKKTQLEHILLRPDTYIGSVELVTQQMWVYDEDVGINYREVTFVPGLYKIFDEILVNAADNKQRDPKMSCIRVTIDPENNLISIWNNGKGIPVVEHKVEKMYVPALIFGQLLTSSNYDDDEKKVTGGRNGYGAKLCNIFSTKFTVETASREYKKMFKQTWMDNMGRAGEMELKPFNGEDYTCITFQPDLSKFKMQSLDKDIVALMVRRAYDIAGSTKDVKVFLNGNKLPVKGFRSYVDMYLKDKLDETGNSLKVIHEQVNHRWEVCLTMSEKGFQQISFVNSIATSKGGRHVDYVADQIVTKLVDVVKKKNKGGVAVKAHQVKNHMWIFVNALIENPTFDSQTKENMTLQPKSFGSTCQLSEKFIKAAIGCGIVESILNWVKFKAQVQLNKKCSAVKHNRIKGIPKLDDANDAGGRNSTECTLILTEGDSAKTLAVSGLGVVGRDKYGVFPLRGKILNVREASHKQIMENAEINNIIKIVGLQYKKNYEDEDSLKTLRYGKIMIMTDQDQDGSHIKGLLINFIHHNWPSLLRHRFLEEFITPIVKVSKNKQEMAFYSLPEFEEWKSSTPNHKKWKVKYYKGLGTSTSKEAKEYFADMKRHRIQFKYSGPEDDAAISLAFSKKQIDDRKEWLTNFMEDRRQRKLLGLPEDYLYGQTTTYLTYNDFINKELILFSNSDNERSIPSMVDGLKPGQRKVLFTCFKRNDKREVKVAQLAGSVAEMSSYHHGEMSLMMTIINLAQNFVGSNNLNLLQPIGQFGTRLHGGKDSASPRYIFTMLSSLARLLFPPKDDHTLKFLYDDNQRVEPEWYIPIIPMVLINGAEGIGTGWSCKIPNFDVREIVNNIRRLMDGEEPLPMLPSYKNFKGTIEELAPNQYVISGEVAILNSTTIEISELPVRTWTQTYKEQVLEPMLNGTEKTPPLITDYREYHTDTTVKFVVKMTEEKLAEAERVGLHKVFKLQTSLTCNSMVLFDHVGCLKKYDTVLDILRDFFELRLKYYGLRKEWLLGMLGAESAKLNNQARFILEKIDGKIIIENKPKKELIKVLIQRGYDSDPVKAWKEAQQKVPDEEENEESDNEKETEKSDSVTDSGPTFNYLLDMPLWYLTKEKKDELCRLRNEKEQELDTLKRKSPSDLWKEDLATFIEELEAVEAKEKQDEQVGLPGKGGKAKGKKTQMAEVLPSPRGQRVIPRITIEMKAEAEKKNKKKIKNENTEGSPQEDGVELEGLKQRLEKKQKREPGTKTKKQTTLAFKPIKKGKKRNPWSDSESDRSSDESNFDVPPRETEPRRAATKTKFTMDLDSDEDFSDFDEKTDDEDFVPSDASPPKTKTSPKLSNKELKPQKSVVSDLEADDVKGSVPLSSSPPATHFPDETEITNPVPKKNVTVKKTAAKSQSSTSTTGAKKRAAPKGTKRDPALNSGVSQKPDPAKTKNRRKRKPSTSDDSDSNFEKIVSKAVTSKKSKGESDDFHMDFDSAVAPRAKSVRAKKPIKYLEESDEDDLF

COc1ccc2nccc(CCN3CCC(NCc4ccc(N)cc4)CC3)c2n1 [Compound 9, N-(4-Aminobenzyl)-1-(2-(6-methoxy-1,5-naphthyridin-4-yl)ethyl)piperidin-4-amine]
> 328 µM: MIC (E. faecalis RDK 057; Enterococcus faecalis, RDK057; Table S3; read-out: MIC (μM) E. faecalis DRK 057) | MIC (K. pneumoniae; Klebsiella pneumoniae, 20 h; Table S3; read-out: MIC (μM) K. pneumoniae) | MIC (P. aeruginosa RDK 184; Pseudomonas aeruginosa, RDK184, 20 h; Table S3; read-out: MIC (μM) P. aeruginosa RDK 184) | MIC (E. coli ESBL QA-11.3; Escherichia coli, ESBLQA11.3, 20 h; Table S3; read-out: MIC (μM) E. coli ESBL QA:11.3) | MIC (A. baumannii; Acinetobacter baumannii, 20 h; Table S3; read-out: MIC (μM) A. baumannii) | MIC (E. coli D22; D22, 20 h, Table S3, lpxC mutation, read-out: MIC (μM) E. coli D22) | MIC (E. coli (ATCC 25922); Escherichia coli, ATCC25922, 20 h; Table S3; read-out: MIC (μM) E. coli (ATCC 25922))
> 128 µg/mL: MIC (E. faecalis RDK 057; Enterococcus faecalis, RDK057; read-out: MIC E. faecalis RDK 057) | MIC (K. pneumoniae; Klebsiella pneumoniae; read-out: MIC K. pneumoniae) | MIC (P. aeruginosa RDK 184; Pseudomonas aeruginosa, RDK184; read-out: MIC P. aeruginosa RDK 184) | MIC (E. coli ESBL QA-11.3; Escherichia coli, ESBLQA11.3; read-out: MIC E. coli ESBL QA-11.3) | MIC (A. baumannii; Acinetobacter baumannii; read-out: MIC A. baumannii) | MIC (E. coli D22; D22, lpxC mutation that increases membrane permeability, read-out: MIC E. coli D22) | MIC (E. coli (ATCC 25922); Escherichia coli, ATCC25922; read-out: MIC E. coli (ATCC 25922))
64 µg/mL: MIC (S. aureus (ATCC 29213); Staphylococcus aureus, ATCC29213; read-out: MIC S. aureus (ATCC 29213)) | MIC (E. coli N43 (CGSC# 5583); [2])
> 100 µM: IC50 (S. aureus topoIV) | IC50 (E. coli DNA gyrase)
5.698 ± 0.014 µM: IC50 (E. coli topoIV)
34 ± 16.9 µM: IC50 at 72 h ([1]; HUVEC cells (ATCC CRL-1730))
164 µM: MIC (S. aureus (ATCC 29213); Staphylococcus aureus, ATCC29213, read-out: MIC (μM) S. aureus (ATCC 29213)) | MIC (E. coli N43 (CGSC# 5583); read-out: MIC (μM) E. coli N43)
100 ± 1%: remaining activity at 100 µM (human topoisomerase IIα)
26.1 ± 9.52 µM: IC50 at 72 h ([1]; HepG2 cells (ATCC HB-8065))
1.38 ± 0.108 µM: IC50 (S. aureus DNA gyrase)

COc1ccc2nccc(OCC3CCC(NCc4ccc(N)cc4)CC3)c2n1 (centres unmarked) [Compound 10, 4-(((4-(((6-methoxy-1,5-naphthyridin-4-yl)oxy)methyl)cyclohexyl)amino)methyl)aniline]
> 328 µM: MIC (E. faecalis RDK 057; Enterococcus faecalis, RDK057, read-out: MIC (μM) E. faecalis DRK 057) | MIC (K. pneumoniae; Klebsiella pneumoniae, 20 h, read-out: MIC (μM) K. pneumoniae) | MIC (P. aeruginosa RDK 184; Pseudomonas aeruginosa, RDK184, 20 h, read-out: MIC (μM) P. aeruginosa RDK 184) | MIC (S. aureus (ATCC 29213); Staphylococcus aureus, ATCC29213, 20 h, read-out: MIC (μM) S. aureus (ATCC 29213)) | MIC (E. coli N43 (CGSC# 5583); 20 h, read-out: MIC (μM) E. coli N43) | MIC (E. coli ESBL QA-11.3; Escherichia coli, ESBLQA11.3, 20 h, read-out: MIC (μM) E. coli ESBL QA:11.3) | MIC (A. baumannii; Acinetobacter baumannii, 20 h, read-out: MIC (μM) A. baumannii) | MIC (E. coli D22; D22, 20 h, read-out: MIC (μM) E. coli D22) | MIC (E. coli (ATCC 25922); Escherichia coli, ATCC25922, 20 h, read-out: MIC (μM) E. coli (ATCC 25922))
> 100 µM: IC50 (S. aureus topoIV) | IC50 (S. aureus DNA gyrase) | IC50 (E. coli DNA gyrase) | IC50 (E. coli topoIV)
99 ± 1%: remaining activity at 100 µM (human topoisomerase IIα)
> 128 µg/mL: MIC (E. faecalis RDK 057; Enterococcus faecalis, RDK057, read-out: MIC E. faecalis RDK 057) | MIC (K. pneumoniae; Klebsiella pneumoniae, read-out: MIC K. pneumoniae) | MIC (P. aeruginosa RDK 184; Pseudomonas aeruginosa, RDK184, read-out: MIC P. aeruginosa RDK 184) | MIC (S. aureus (ATCC 29213); Staphylococcus aureus, ATCC29213, read-out: MIC S. aureus (ATCC 29213)) | MIC (E. coli N43 (CGSC# 5583); [2]) | MIC (E. coli ESBL QA-11.3; Escherichia coli, ESBLQA11.3, read-out: MIC E. coli ESBL QA-11.3) | MIC (A. baumannii; Acinetobacter baumannii, read-out: MIC A. baumannii) | MIC (E. coli D22; D22, read-out: MIC E. coli D22) | MIC (E. coli (ATCC 25922); Escherichia coli, ATCC25922, read-out: MIC E. coli (ATCC 25922))
> 50 µM: IC50 at 72 h ([1]; HUVEC cells (ATCC CRL-1730)) | IC50 at 72 h ([1]; HepG2 cells (ATCC HB-8065))

From publication PMC10215804, “Exploring Alternative Pathways to Target Bacterial Type II Topoisomerases Using NBTI Antibacterials: Beyond Halogen-Bonding Interactions” (Antibiotics, 2023)
